Data taken from ChEMBL document CHEMBL5390202, “Cannabinoid Receptor Type II Ligands from Sandalwood Oil and Synthetic α-Santalol Derivatives” (J Nat Prod, 2023).
Activity calls are given as the source filed them. No cut-off for these calls is given here.

Key:
Cannabinoid receptor 2 [1] = molecular target: T1, Cannabinoid receptor 2 (Homo sapiens, UniProt P34972); experiment: Displacement of [3H]-CP55940 from human CB2 receptor expressed in CHO cell membranes at 10 uM incubated for 1 hr by TopCount liquid scintillation counting analysis relative to control; details: Membrane
T1 sequence (P34972 whole entry): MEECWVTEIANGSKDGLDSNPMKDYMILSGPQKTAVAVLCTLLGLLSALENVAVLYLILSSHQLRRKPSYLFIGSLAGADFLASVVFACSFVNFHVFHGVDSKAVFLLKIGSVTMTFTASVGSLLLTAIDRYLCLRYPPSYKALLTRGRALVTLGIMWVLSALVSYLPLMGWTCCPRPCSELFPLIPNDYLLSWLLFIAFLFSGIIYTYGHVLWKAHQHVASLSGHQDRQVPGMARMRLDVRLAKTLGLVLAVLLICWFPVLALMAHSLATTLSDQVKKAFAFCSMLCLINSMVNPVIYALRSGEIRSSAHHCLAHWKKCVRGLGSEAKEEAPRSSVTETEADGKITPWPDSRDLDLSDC

Cannabinoid receptor 2 [2] = molecular target: T1, Cannabinoid receptor 2; experiment: Agonist activity at CB2 receptor (unknown origin) expressed in human SH-SY5Y cells assessed as increase in intracellular calcium flux at 0.032 to 0.1 uM incubated for 3 mins in presence of 60 nM AM-630 by Fluo-4AM dye based fluorescence analysis; format: functional, cell-based; details: dose 0.032-0.1 µM
Cannabinoid receptor 2 [3] = molecular target: T1, Cannabinoid receptor 2; experiment: Potency index, ratio of alpha-santalol Ki to test compound Ki for displacement of [3H]-CP55940 from human CB2 receptor expressed in CHO cell membranes incubated for 1 hr by TopCount liquid scintillation counting analysis; details: Membrane, filed as agonist
Cannabinoid receptor 2 [4] = molecular target: T1, Cannabinoid receptor 2; experiment: Displacement of [3H]-CP55940 from human CB2 receptor expressed in CHO cell membranes assessed as inhibition constant incubated for 1 hr by TopCount liquid scintillation counting analysis; design: species or system Membrane
Cannabinoid receptor 2 [5] = molecular target: T1, Cannabinoid receptor 2; experiment: Agonist activity at CB2 receptor (unknown origin) expressed in human SH-SY5Y cells assessed as increase in intracellular calcium flux at 0.032 to 0.1 uM incubated for 3 mins by Fluo-4AM dye based fluorescence analysis; format: functional, cell-based; details: filed as agonist, dose 0.032-0.1 µM
Cannabinoid receptor 2 [6] = molecular target: T1, Cannabinoid receptor 2; experiment: Agonist activity at CB2 receptor (unknown origin) expressed in human SH-SY5Y cells assessed as increase in intracellular calcium flux at 0.032 to 0.1 uM incubated for 3 mins in presence of 10 uM raloxifene by Fluo-4AM dye based fluorescence analysis; format: functional, cell-based; details: dose 0.032-0.1 µM
[7] = molecular target: Cannabinoid receptor 1 (Homo sapiens) (UniProt P21554); experiment: Displacement of [3H]-CP55940 from human CB1 receptor expressed in CHO cell membranes at 10 uM incubated for 1 hr by TopCount liquid scintillation counting analysis relative to control; details: Membrane
Sequence of Cannabinoid receptor 1 (Homo sapiens) (P21554 whole entry): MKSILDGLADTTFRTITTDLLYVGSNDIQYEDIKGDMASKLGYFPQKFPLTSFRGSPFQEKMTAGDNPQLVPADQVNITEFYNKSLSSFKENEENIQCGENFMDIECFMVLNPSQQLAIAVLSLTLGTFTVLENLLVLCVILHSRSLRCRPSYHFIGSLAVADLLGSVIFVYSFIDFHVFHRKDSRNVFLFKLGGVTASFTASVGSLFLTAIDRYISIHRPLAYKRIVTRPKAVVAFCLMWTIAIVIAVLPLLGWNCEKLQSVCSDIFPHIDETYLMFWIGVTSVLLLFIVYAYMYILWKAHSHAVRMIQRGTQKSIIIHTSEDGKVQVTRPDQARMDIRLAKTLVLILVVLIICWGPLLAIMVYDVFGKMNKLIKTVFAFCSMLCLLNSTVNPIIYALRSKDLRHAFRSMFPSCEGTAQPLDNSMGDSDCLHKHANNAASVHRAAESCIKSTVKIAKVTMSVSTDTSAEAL

Cannabinoid receptor 2 [8] = molecular target: T1, Cannabinoid receptor 2; experiment: Agonist activity at CB2 receptor (unknown origin) expressed in human SH-SY5Y cells assessed as increase in intracellular calcium flux at 3.2 to 10 uM incubated for 3 mins by Fluo-4AM dye based fluorescence analysis; format: functional, cell-based; details: filed as agonist, dose 3.2-10 µM
Cannabinoid receptor 2 [9] = molecular target: T1, Cannabinoid receptor 2; experiment: Agonist activity at CB2 receptor (unknown origin) expressed in human SH-SY5Y cells assessed as increase in intracellular calcium flux at 3.2 to 10 uM incubated for 3 mins in presence of 10 uM raloxifene by Fluo-4AM dye based fluorescence analysis; format: functional, cell-based; details: dose 3.2-10 µM
Cannabinoid receptor 2 [10] = molecular target: T1, Cannabinoid receptor 2; experiment: Agonist activity at CB2 receptor (unknown origin) expressed in human SH-SY5Y cells assessed as increase in intracellular calcium flux at 3.2 to 10 uM incubated for 3 mins in presence of 60 nM AM-630 by Fluo-4AM dye based fluorescence analysis; format: functional, cell-based; details: dose 3.2-10 µM
[11] = molecular target: 5-hydroxytryptamine receptor 2A (Rattus norvegicus, UniProt P14842); experiment: Displacement of [3H]-ketanserin from rat brain cortex 5-HT2A receptor incubated for 60 mins by liquid scintillation counting analysis; format: tissue-based
Sequence of 5-hydroxytryptamine receptor 2A (P14842 whole entry): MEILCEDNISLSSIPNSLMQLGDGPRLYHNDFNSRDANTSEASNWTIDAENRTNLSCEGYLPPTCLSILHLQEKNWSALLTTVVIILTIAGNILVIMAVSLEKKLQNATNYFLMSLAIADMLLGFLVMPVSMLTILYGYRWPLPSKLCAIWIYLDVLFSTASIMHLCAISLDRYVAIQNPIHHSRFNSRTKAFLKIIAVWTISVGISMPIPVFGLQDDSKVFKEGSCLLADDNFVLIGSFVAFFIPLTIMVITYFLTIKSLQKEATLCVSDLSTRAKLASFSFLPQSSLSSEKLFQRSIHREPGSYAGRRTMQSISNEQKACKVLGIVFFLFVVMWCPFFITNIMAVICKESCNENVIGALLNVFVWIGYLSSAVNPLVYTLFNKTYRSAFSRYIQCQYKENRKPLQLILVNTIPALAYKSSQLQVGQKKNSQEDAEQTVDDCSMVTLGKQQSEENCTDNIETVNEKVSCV

D(2) dopamine receptor = D(2) dopamine receptor (Rattus norvegicus, UniProt P61169); experiment: Displacement of [3H]-raclopride from rat brain striatum dopamine D2 receptor incubated for 60 mins by liquid scintillation counting analysis; format: tissue-based
Sequence of D(2) dopamine receptor (P61169 whole entry): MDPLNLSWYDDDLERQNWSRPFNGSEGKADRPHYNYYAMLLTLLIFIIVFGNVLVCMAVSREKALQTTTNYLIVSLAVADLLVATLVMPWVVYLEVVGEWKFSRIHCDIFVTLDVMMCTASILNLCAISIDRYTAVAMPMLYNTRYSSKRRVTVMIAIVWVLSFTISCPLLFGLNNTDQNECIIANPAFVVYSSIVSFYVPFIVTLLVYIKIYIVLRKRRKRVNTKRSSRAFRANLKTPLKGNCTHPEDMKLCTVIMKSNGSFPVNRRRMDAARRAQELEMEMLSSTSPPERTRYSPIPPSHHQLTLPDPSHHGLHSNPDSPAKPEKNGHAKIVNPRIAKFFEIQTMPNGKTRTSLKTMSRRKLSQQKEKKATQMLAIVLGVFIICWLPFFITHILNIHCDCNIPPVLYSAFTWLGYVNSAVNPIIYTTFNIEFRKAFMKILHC

Work on `C/C(=C/CC[C@]1(C)[C@@H]2C[C@@H]3[C@H](C2)[C@@]31C)CNNC(=O)c1ccccc1` yielded an Activity (Cannabinoid receptor 2 [1]) of 26.9%.

For `C/C(=C/CC[C@]1(C)[C@@H]2C[C@@H]3[C@H](C2)[C@@]31C)CN1CCCC1`, the Activity (Cannabinoid receptor 2 [1]) was 8.03%.

`C/C(=C/CC[C@]1(C)[C@@H]2C[C@@H]3[C@H](C2)[C@@]31C)CN1CCOCC1` showed an Activity (Cannabinoid receptor 2 [1]) of 21.3%.

For `C/C(=C/CC[C@]1(C)[C@@H]2C[C@@H]3[C@H](C2)[C@@]31C)CN(C)C`, the Activity (Cannabinoid receptor 2 [1]) was 2.94%.

In the case of `C/C(=C/CC[C@]1(C)[C@H]2C[C@@H]3[C@@H](C2)[C@]31C)CN1CCN(C)CC1`, the Activity (Cannabinoid receptor 2 [2]) is reported as “inactive”, the Ratio Ki (Cannabinoid receptor 2 [3]) is reported as 10.6 and the Ki (Cannabinoid receptor 2 [4]) is reported as 0.99 µM. For the same molecule, the Activity (Cannabinoid receptor 2 [5]) was “Active”, the Activity (Cannabinoid receptor 2 [6]) was “inactive” and the Activity (Cannabinoid receptor 2 [1]; filed as agonist) was 82.1%. For the same molecule, the Activity [7] was less than 20%.

For `C/C(=C/CC[C@]1(C)[C@@H]2C[C@@H]3[C@H](C2)[C@@]31C)CN(CCO)CCO`, the Activity (Cannabinoid receptor 2 [1]) was 1.72%.

`C/C(=C/CC[C@]1(C)[C@@H]2C[C@@H]3[C@H](C2)[C@@]31C)CN1CCCCC1` showed an Activity (Cannabinoid receptor 2 [1]) of 16.8%.

`COc1ccc(C(=O)c2c(C)n(CCN3CCOCC3)c3cc(I)ccc23)cc1` was tested, and the Activity (Cannabinoid receptor 2 [1]; filed as antagonist) was 93%.

With `C=C1[C@@H]2CC[C@@H](C2)[C@@]1(C)CC/C=C(/C)CO` the Activity (Cannabinoid receptor 2 [8]) was “Active”, the Activity (Cannabinoid receptor 2 [9]) was “inactive” and the Ki (Cannabinoid receptor 2 [4]) was 8.19 µM. For the same molecule, the Activity (Cannabinoid receptor 2 [1]; filed as agonist) was 55.8%, the Activity (Cannabinoid receptor 2 [10]) was “inactive” and the Activity [7] was less than 16%.

`C/C(=C/CC[C@]1(C)[C@@H]2C[C@@H]3[C@H](C2)[C@@]31C)CNNC(=O)c1ccc(N(C)C)cc1` was tested, and the Activity (Cannabinoid receptor 2 [1]) was 26.5%.

`C/C(=C/CC[C@]1(C)[C@@H]2C[C@@H]3[C@H](C2)[C@@]31C)COC(=O)CCC(=O)O` gave an Activity (Cannabinoid receptor 2 [1]) of 5.82%.

In the case of `O=C(c1ccc(OCCN2CCCCC2)cc1)c1c(-c2ccc(O)cc2)sc2cc(O)ccc12` [RALOXIFENE], the Ki (Cannabinoid receptor 2 [4]) is reported as roughly 0.24 µM.

For `C/C(=C/CC[C@]1(C)[C@H]2CC3[C@H](C2)[C@]31C)CO`, the Activity (Cannabinoid receptor 2 [8]) was “Active”, the IC50 [11] was 180 µM and the Activity (Cannabinoid receptor 2 [9]) was “inactive”. The Ki (Cannabinoid receptor 2 [4]) was 10.5 µM, the IC50 (D(2) dopamine receptor) was 75 µM and the Activity (Cannabinoid receptor 2 [1]; filed as agonist) was 62.5%. The Activity (Cannabinoid receptor 2 [10]) was “inactive” and the Activity [7] was less than 16%.
